ChEMBL document CHEMBL1201862, “PubChem BioAssay data set” (2004)
Calls of active or inactive are those of the source. Cut-off read from the data, not from the text of the source, for most assays here: actives have a measured EC50 and inactives only a lower limit.

Key:
[1] = Luminescence Cell-Based Dose Confirmation to Identify Activators of 5'UTR Stem-Loop Driven Alpha-Synuclein mRNA Translation in H4 Neuroglioblastoma Cells. [Related pubchem assays: 1829 (Project Summary), 1814 (Primary HTS)]; type: functional
[2] = Luminescence Cell-Based Dose Response to Identify Activators of 5'UTR Stem-Loop Driven Prion Protein mRNA Translation in H4-C Neuroglioblastoma Cells. [Related pubchem assays: 1829 (Project Summary), 1814 (Primary HTS)]; type: functional
[3] = Luminescence Cell-Based Dose Response HTS to Identify Activators of Luciferase Translation or Activity in H4 […] Cells. [Related pubchem assays: 1829 (Project Summary), 1814 (Primary HTS)]; type: functional
[4] = Luminescence Cell-Based Dose Response to Identify Activators of Luciferase Translation or Activity in H4-C Neuroglioblastoma Cells. [Related pubchem assays: 1829 (Project Summary), 1814 (Primary HTS)]; type: functional
H4 = test: Luminescence Cell-Based Dose Response HTS to Identify Activators of 5'UTR Stem-Loop Driven Prion Protein mRNA Translation in H4 Neuroglioblastoma Cells. [Related pubchem assays: 1829 (Project Summary), 1814 (Primary HTS)]; type: functional; conditions: Homo sapiens
[5] = target: T1, Corticotropin-releasing factor receptor 2/Corticotropin-releasing factor-binding protein (Homo sapiens, UniProt P24387+Q13324); test: Dose Response confirmation of uHTS hits for small molecule antagonists of the CRF-binding protein and CRF-R2 receptor complex.; type: functional; conditions: read-out: IC50_Mean
T1 sequence (Q13324 whole entry): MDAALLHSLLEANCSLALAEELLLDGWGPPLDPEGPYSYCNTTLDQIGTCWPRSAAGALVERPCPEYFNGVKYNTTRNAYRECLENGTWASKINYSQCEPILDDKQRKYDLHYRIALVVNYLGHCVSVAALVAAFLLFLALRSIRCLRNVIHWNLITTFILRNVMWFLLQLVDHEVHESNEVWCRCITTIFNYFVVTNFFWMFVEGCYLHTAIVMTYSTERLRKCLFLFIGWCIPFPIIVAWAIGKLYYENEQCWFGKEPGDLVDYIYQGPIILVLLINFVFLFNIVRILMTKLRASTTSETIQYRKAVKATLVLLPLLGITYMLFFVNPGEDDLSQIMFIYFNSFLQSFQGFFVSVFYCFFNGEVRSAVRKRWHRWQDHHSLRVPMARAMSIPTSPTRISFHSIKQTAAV
T1 sequence (P24387 whole entry): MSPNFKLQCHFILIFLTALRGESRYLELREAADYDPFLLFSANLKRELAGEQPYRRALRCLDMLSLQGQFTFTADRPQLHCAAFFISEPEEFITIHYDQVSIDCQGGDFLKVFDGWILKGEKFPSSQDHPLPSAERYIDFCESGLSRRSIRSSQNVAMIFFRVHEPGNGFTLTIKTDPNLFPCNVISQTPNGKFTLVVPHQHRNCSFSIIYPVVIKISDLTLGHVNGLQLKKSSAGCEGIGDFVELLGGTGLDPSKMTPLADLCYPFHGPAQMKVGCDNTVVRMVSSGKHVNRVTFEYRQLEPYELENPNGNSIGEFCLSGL

[6] = target: T1, Corticotropin-releasing factor receptor 2/Corticotropin-releasing factor-binding protein; test: activators of CRF receptor 2 with binding protein – uHTS hits, confirmation (AID 602473); type: functional; conditions: read-out: EC50_Mean
[7] = blockers of CRF-binding protein–CRF-R2 complex – cell-based, uHTS hits, 384-well, dose response (AID 651639); type: functional, Homo sapiens; conditions: read-out: IC50_Mean
[8] = target: T2, Short transient receptor potential channel 4 (Mus musculus, UniProt Q9QUQ5); test: calcium entry via TRPC4 opening agents – cell-based, HEK293 TRPC4/mu-opioid, Fluo-4 calcium, dose response (AID 434937); type: functional
T2 sequence (Q9QUQ5 whole entry): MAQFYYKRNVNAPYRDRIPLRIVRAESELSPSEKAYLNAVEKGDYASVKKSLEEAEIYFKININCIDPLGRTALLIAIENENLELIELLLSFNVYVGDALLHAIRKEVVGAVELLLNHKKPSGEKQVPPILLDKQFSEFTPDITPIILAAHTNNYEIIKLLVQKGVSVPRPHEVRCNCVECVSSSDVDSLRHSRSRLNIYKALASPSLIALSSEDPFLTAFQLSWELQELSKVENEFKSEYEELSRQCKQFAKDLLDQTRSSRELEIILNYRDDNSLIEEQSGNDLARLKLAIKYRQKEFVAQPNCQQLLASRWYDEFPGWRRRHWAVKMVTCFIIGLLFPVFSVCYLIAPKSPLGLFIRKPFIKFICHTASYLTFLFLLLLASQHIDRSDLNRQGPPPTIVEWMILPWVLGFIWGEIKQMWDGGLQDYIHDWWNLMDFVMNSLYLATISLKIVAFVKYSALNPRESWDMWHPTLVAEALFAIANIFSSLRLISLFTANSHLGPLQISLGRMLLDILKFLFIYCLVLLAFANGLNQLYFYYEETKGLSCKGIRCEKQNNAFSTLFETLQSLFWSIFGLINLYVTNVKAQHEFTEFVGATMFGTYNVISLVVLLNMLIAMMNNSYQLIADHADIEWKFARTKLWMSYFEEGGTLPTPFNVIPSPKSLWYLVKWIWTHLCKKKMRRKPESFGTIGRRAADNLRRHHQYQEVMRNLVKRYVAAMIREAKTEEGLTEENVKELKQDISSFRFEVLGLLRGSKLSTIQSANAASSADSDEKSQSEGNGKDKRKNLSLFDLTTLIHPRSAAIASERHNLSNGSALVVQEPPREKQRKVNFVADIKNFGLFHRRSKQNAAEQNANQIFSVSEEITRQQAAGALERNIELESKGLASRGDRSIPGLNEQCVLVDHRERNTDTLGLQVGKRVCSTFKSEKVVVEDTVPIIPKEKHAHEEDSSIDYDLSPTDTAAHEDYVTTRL

Genome polyprotein = Genome polyprotein (dengue virus type 2, UniProt P29990); test: flavivirus cap methylation enzyme inhibition – biochemical, confirmation dose response, primary screen (AID 588689); type: functional
HEK293 [9] = test: cells; type: functional, cell-based; conditions: Homo sapiens
[10] = target: T3, RNA-binding protein pos-1 (Caenorhabditis elegans, UniProt G5EF15); test: disruptors of C. elegans POS-1 RNA interaction – biochemical, fluorescence polarization, dose response (AID 1964);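 note: purified POS-1 fused to maltose binding protein made in E. coli; potency of compounds blocking POS-1 binding to fluorescent RNA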
T3 sequence (G5EF15 whole entry): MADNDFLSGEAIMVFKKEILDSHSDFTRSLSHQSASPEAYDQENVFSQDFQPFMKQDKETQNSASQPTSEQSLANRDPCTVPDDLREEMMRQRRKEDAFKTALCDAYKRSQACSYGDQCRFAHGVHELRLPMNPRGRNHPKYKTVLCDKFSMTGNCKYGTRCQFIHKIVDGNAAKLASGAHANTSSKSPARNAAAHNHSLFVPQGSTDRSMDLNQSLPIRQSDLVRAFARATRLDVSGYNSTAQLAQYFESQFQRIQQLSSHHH

HEK293 [11] = test: NOD2 signaling inhibitors in MDP-stimulated cells, cell-based, uHTS, luminescence (AID 2001); type: functional; conditions: Homo sapiens
HEK293 [12] = test: inhibition of NOD1-driven NF-kB reporter – cell-based, luminescence, uHTS, primary screen (AID 1578); type: functional; conditions: Homo sapiens
[13] = target: T4, Zinc finger protein mex-5 (Caenorhabditis elegans, UniProt Q9XUB2); test: potency of MEX-5 RNA-binding blockers – biochemical, C. elegans, fluorescence polarization, dose response (AID 1960)
T4 sequence (Q9XUB2 whole entry): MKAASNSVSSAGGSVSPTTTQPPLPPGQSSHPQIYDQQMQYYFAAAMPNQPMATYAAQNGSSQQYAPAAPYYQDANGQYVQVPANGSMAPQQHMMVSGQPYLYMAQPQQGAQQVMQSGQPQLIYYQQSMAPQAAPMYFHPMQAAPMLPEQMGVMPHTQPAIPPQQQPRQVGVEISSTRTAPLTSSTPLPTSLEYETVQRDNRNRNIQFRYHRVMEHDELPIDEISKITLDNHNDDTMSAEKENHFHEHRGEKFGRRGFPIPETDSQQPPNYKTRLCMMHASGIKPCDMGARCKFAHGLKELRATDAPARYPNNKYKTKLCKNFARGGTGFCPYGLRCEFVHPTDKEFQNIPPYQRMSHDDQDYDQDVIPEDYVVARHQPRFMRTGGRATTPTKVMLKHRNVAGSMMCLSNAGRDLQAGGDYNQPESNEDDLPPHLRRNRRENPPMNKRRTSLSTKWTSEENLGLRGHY

HEK293 [14] = test: cells; type: functional, cell-based; conditions: Homo sapiens; remark: listed apart in the source
[15] = Luminescence Cell-Based Dose Confirmation HTS to Identify Activators of 5'UTR Stem-Loop Driven Alpha-Synuclein mRNA Translation in H4 Neuroglioblastoma Cells. [Related pubchem assays: 1829 (Project Summary), 1814 (Primary HTS)]; type: functional
[16] = HIV-1 Vif–A3G interaction blockers – biochemical, TR-FRET, GST-Vif 1-94, biotin-A3G peptide, dose response retest, primary screen (AID 1117319); type: functional;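 note: TR-FRET signal of purified GST-Vif binding a biotinylated A3G peptide; inhibitors lower the FRET signal by blocking Vif and A3G binding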

Chain of Genome polyprotein (P29990 2492-3391 limits assumed): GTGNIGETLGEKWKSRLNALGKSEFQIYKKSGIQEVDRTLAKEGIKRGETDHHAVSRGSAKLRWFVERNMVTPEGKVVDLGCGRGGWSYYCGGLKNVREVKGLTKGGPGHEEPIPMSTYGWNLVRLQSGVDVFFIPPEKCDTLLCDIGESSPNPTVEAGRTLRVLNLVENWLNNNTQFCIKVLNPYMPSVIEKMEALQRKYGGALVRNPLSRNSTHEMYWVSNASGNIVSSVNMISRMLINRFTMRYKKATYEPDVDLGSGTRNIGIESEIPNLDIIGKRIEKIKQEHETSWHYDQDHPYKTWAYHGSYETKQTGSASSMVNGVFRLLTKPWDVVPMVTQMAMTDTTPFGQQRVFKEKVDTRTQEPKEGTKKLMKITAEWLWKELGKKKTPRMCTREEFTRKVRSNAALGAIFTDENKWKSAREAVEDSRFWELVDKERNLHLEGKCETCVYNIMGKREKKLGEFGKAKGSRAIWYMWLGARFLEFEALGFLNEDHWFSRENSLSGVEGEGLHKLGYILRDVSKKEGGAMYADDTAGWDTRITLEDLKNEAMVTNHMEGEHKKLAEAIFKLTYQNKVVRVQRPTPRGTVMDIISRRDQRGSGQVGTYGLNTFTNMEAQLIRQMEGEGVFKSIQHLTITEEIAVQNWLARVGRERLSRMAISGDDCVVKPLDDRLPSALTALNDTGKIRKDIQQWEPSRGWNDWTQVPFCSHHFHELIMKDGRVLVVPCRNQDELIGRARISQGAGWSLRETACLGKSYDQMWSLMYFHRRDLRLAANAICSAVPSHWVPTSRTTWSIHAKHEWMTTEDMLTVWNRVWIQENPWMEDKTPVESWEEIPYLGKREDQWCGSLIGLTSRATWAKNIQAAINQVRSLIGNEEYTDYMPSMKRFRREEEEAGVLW

COC(=O)CSc1nc(-c2cccs2)ccc1C#N
EC50 [1]: 0.219 µM (active)
EC50 [2]: 0.307 µM (active)
EC50 [3]: < 0.1 µM (active)
EC50 [4]: 0.179 µM (active)
EC50 (H4): 0.261 µM (active)

Cc1ccc(-n2nnnc2SCc2nnc(-c3ccccc3Br)o2)cc1
IC50 [5]: 11 µM (active)
EC50 [6]: > 53 µM (inactive)
IC50 [7]: 3.85 µM (active)

Cc1ccccc1N=C(S)NCCc1ccccn1
EC50 [8]: 5.31 µM (active)

COc1ccc(CNCCc2c[nH]c3ccccc23)cc1OC
EC50 [8]: 5.96 µM (active)

COC(=O)c1ccccc1NC(=O)c1cccc(COc2ccccc2Cl)c1
EC50 [1]: 0.299 µM (active)
EC50 [2]: 0.809 µM (active)
EC50 [3]: < 0.1 µM (active)
EC50 [4]: 0.295 µM (active)

N=C(N)NN=C1CCCCCCCCCCC1
EC50 [8]: 7.5 µM (active)

COc1cc(NC(=O)CSc2ncnc3sc4c(c23)CCC(C)C4)c(C(=O)O)cc1OC (stereo not drawn)
IC50 (Genome polyprotein): 86 µM (active)

Cc1cccc2cc3c(N)c(C(=O)Nc4ccc(N5CCOCC5)cc4)sc3nc12
IC50 (HEK293 [9]): 5.5 µM (active)
EC50 [10]: > 300 µM (not active)
IC50 (HEK293 [11]): 7.54 µM (inactive)
EC50 (HEK293 [12]): 18.7 µM (active)
EC50 [13]: > 300 µM (not active)
IC50 (HEK293 [14]): > 20 µM (inactive)

CCC(=O)N1CCc2cc(Br)cc(S(=O)(=O)NCCCN(C)Cc3ccccc3)c21
EC50 [8]: 0.0947 µM (active)

Cc1cccc(CSc2nc3c(c(=O)n2C)SCC3)c1
IC50 [5]: < 0.368 µM (active)
EC50 [6]: > 53 µM (inactive)
IC50 [7]: > 20 µM (inactive)

N=C(CS(=O)(=O)c1ccccn1)NOC(=O)c1ccccc1Cl
EC50 [1]: 0.244 µM (active)
EC50 [2]: 0.769 µM (active)
EC50 [3]: < 0.1 µM (active)
EC50 [4]: 5.85 µM (active)
EC50 [15]: 0.17 µM (active)
EC50 (H4): 10.7 µM (active)

CCCn1nc(Oc2nc(SC)nc(N(C)C)n2)ccc1=O
IC50 [16]: > 100 µM (active)
